# Results published in patent US20250197387A1, “BCL-XL DEGRADERS AND USES THEREOF” (Kymera Therapeutics, Inc., priority 2021, published 2025).
# Read-outs that look alike come from different tables or passages of the source.
# Key:
# Type in all cases: cell-based
# MOLT-4 cells = assay: CTG (CellTiter-Glo) cell viability assay, MOLT-4; settings: Homo sapiens, 3 day incubation, read-out: CTG Cell Viability Assay - MOLT-4 3 day: Average external-IC50
# In short: (§1)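 IC50 is from a three-parameter logistic fit of CellTiter-Glo luminescence after 3-day treatment of cells seeded at 10,000 per well. Codes: MOLT-4 A <0.1, B 0.1-1.0, C >1.0-3.0, D >3.0 μM; Caki-2 A <0.1, B 0.1-1.0, C >1.0-10.0, D >10.0 μM.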
# Caki-2 cells = assay: CTG (CellTiter-Glo) cell viability assay, Caki-2; settings: Homo sapiens, 72 h, 3 day incubation, read-out: CTG Chempartner - Caki-2 3 day: Average external-IC50
# In short: as §1
# BCL-XL = target: T1, BCL-XL (Homo sapiens, UniProt Q07817); assay: Bcl-xL ELISA degradation in MOLT-4 cells, 6 h; settings: for DC50: read-out: Bcl-xL ELISA in MOLT-4 degradation 6 h: Mean external-Abs DC50
# T1 construct: endogenous in cells; host or cells: MOLT-4
# T1 sequence (Q07817 whole entry): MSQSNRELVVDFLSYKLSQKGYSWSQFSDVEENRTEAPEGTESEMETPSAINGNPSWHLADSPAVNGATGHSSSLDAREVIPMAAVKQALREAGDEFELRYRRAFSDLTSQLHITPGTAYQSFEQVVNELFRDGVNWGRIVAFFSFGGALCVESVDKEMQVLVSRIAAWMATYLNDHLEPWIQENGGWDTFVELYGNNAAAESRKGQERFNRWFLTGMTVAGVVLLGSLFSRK
# Method: The letter codes for BCL-XL DC50 include: A (<0.01 μM); B (0.01-0.1 μM); C (>[…]); D (>0.5-1.0 μM); and E (>1.0 μM). The letter codes for Dmax % include A (>75%); B (50 to 75%); C (<50%).
"IC50 (MOLT-4 cells; MOLT-4, 72 h)",Dmax (BCL-XL),DC50 (BCL-XL),Structure (SMILES),IC50 (Caki-2 cells),IC50 (MOLT-4 cells; 72 h)
< 100 nM,> 75%,10 to 100 nM,Cc1ncsc1-c1ccc(CNC(=O)[C@@H]2C[C@@H](O)CN2C(=O)[C@@H](NC(=O)COc2ccc(S(=O)(=O)NC(=O)c3nc(N4CCc5cccc(C(=O)Nc6nc7ccccc7s6)c5C4)ccc3-c3cnn(CC4CCCCC4)c3C)cc2)C(C)(C)C)cc1 [I-327],1000 to 10000 nM,
< 100 nM,> 75%,10 to 100 nM,Cc1ncsc1-c1ccc([C@H](C)NC(=O)[C@@H]2C[C@@H](O)CN2C(=O)[C@@H](NC(=O)C2CCN(c3ccc(S(=O)(=O)NC(=O)c4nc(N5CCc6cccc(C(=O)Nc7nc8ccccc8s7)c6C5)ccc4-c4cnn(CC5CCCCC5)c4C)cc3F)CC2)C(C)(C)C)cc1 [I-328],1000 to 10000 nM,
< 100 nM,> 75%,10 to 100 nM,Cc1ncsc1-c1ccc(CNC(=O)[C@@H]2C[C@@H](O)CN2C(=O)[C@@H](NC(=O)C2CCN(c3ccc(S(=O)(=O)NC(=O)c4nc(N5CCc6cccc(C(=O)Nc7nc8ccccc8s7)c6C5)ccc4-c4cnn(CC5CCCCC5)c4C)cc3F)CC2)C(C)(C)C)cc1 [I-329],1000 to 10000 nM,
< 100 nM,50 to 75%,10 to 100 nM,Cc1ncsc1-c1ccc(CNC(=O)[C@@H]2C[C@@H](O)CN2C(=O)[C@@H](NC(=O)C2CN(c3ccc(S(=O)(=O)NC(=O)c4nc(N5CCc6cccc(C(=O)Nc7nc8ccccc8s7)c6C5)ccc4-c4cnn(CC5CCCCC5)c4C)cc3F)C2)C(C)(C)C)cc1 [I-330],1000 to 10000 nM,
100 to 1000 nM,50 to 75%,100 to 500 nM,Cc1ncsc1-c1ccc([C@H](C)NC(=O)[C@@H]2C[C@@H](O)CN2C(=O)[C@@H](NC(=O)CCCS(=O)(=O)NC(=O)c2nc(N3CCc4cccc(C(=O)Nc5nc6cccnc6s5)c4C3)ccc2-c2cnn(CC3CCCCC3)c2C)C(C)(C)C)cc1 [I-331],> 10000 nM,
100 to 1000 nM,> 75%,10 to 100 nM,Cc1ncsc1-c1ccc([C@H](C)NC(=O)[C@@H]2C[C@@H](O)CN2C(=O)[C@@H](NC(=O)C2CCN(c3ccc(S(=O)(=O)NC(=O)c4nc(N5CCc6cccc(C(=O)Nc7nc8ccccc8s7)c6C5)ccc4-c4ccnc(N(C)C(C)C)c4C)cc3)CC2)C(C)(C)C)cc1 [I-332],> 10000 nM,
100 to 1000 nM,50 to 75%,100 to 500 nM,Cc1ncsc1-c1ccc([C@H](C)NC(=O)[C@@H]2C[C@@H](O)CN2C(=O)[C@@H](NC(=O)CCCCCS(=O)(=O)NC(=O)c2nc(N3CCc4cccc(C(=O)Nc5nc6ccccc6s5)c4C3)ccc2-c2ccnc(N(C)C(C)C)c2C)C(C)(C)C)cc1 [I-333],> 10000 nM,
1000 to 3000 nM,> 75%,100 to 500 nM,Cc1ncsc1-c1ccc([C@H](C)NC(=O)[C@@H]2C[C@@H](O)CN2C(=O)[C@@H](NC(=O)C2CCN(c3ccc(S(=O)(=O)NC(=O)c4nc(N5CCc6cccc(C(=O)Nc7nc8ccccc8s7)c6C5)ccc4-c4cnn(CC5CCCCC5)c4C)cc3COP(=O)(O)O)CC2)C(C)(C)C)cc1 [I-334],1000 to 10000 nM,
1000 to 3000 nM,> 75%,10 to 100 nM,Cc1ncsc1-c1ccc([C@H](C)NC(=O)[C@@H]2C[C@@H](O)CN2C(=O)[C@@H](NC(=O)N2CC(CN3CCC(S(=O)(=O)NC(=O)c4nc(N5CCc6cccc(C(=O)Nc7nc8ccccc8s7)c6C5)ccc4-c4cnn(CC5CCCCC5)c4C)CC3)C2)C(C)(C)C)cc1 [I-336],> 10000 nM,
< 100 nM,> 75%,< 10 nM,Cc1ncsc1-c1ccc(CNC(=O)[C@@H]2C[C@@H](O)CN2C(=O)[C@@H](NC(=O)CCCc2cccc(S(=O)(=O)NC(=O)c3nc(N4CCc5cccc(C(=O)Nc6nc7ccccc7s6)c5C4)ccc3-c3cnn(CC4CCCCC4)c3C)c2)C(C)(C)C)cc1 [I-337],> 10000 nM,
< 100 nM,> 75%,< 10 nM,Cc1ncsc1-c1ccc(CNC(=O)[C@@H]2C[C@@H](O)CN2C(=O)[C@@H](NC(=O)C2CCN(c3ccc(S(=O)(=O)NC(=O)c4nc(N5CCc6cccc(C(=O)Nc7nc8ccccc8s7)c6C5)ccc4-c4cnn(CC5CCCCC5)c4C)c(F)c3)CC2)C(C)(C)C)cc1 [I-339],1000 to 10000 nM,
100 to 1000 nM,> 75%,10 to 100 nM,CCN1CCN(Cc2cc(S(=O)(=O)NC(=O)c3nc(N4CCc5cccc(C(=O)Nc6nc7ccccc7s6)c5C4)ccc3-c3cnn(CC4CCCCC4)c3C)ccc2N2CCC(C(=O)N[C@H](C(=O)N3C[C@H](O)C[C@H]3C(=O)NCc3ccc(-c4scnc4C)cc3)C(C)(C)C)CC2)CC1 [I-341],> 10000 nM,
100 to 1000 nM,> 75%,100 to 500 nM,Cc1ncsc1-c1ccc(CNC(=O)[C@@H]2C[C@@H](O)CN2C(=O)[C@@H](NC(=O)CCc2ccc(S(=O)(=O)NC(=O)c3nc(N4CCc5cccc(C(=O)Nc6nc7ccccc7s6)c5C4)ccc3-c3cnn(CC4CCCCC4)c3C)cn2)C(C)(C)C)cc1 [I-342],> 10000 nM,
< 100 nM,> 75%,10 to 100 nM,Cc1ncsc1-c1ccc([C@H](C)NC(=O)[C@@H]2C[C@@H](O)CN2C(=O)[C@@H](NC(=O)C2CN(c3ccc(S(=O)(=O)NC(=O)c4nc(N5CCc6cccc(C(=O)Nc7nc8ccccc8s7)c6C5)ccc4-c4cnn(CC5CCCCC5)c4C)cc3)C2)C(C)(C)C)cc1 [I-343],1000 to 10000 nM,
100 to 1000 nM,> 75%,10 to 100 nM,Cc1ncsc1-c1ccc([C@H](C)NC(=O)[C@@H]2C[C@@H](O)CN2C(=O)[C@@H](NC(=O)C2CCN(c3ccc(S(=O)(=O)NC(=O)c4nc(N5CCc6cccc(C(=O)Nc7nc8ccccc8s7)c6C5)ccc4-c4cnn(CC5CC5)c4C)cc3)CC2)C(C)(C)C)cc1 [I-344],> 10000 nM,
100 to 1000 nM,> 75%,10 to 100 nM,Cc1ncsc1-c1ccc([C@H](C)NC(=O)[C@@H]2C[C@@H](O)CN2C(=O)[C@@H](NC(=O)N2CC(Cc3ccc(S(=O)(=O)NC(=O)c4nc(N5CCc6cccc(C(=O)Nc7nc8ccccc8s7)c6C5)ccc4-c4cnn(CC5CCCCC5)c4C)cc3)C2)C(C)(C)C)cc1 [I-346],> 10000 nM,
100 to 1000 nM,> 75%,10 to 100 nM,Cc1ncsc1-c1ccc(CNC(=O)[C@@H]2C[C@@H](O)CN2C(=O)[C@@H](NC(=O)CCc2cc(F)c(S(=O)(=O)NC(=O)c3nc(N4CCc5cccc(C(=O)Nc6nc7ccccc7s6)c5C4)ccc3-c3cnn(CC4CCCCC4)c3C)c(F)c2)C(C)(C)C)cc1 [I-347],> 10000 nM,
< 100 nM,> 75%,< 10 nM,Cc1ncsc1-c1ccc([C@H](C)NC(=O)[C@@H]2C[C@@H](O)CN2C(=O)[C@@H](NC(=O)C2CCN(c3ccc(S(=O)(=O)NC(=O)c4nc(N5CCc6cccc(C(=O)Nc7nc8ccccc8s7)c6C5)ccc4-c4cnn(CC5CCCC5)c4C)cc3)CC2)C(C)(C)C)cc1 [I-348],> 10000 nM,
< 100 nM,> 75%,< 10 nM,CCC(CC)Cn1ncc(-c2ccc(N3CCc4cccc(C(=O)Nc5nc6ccccc6s5)c4C3)nc2C(=O)NS(=O)(=O)c2ccc(N3CCC(C(=O)N[C@H](C(=O)N4C[C@H](O)C[C@H]4C(=O)N[C@@H](C)c4ccc(-c5scnc5C)cc4)C(C)(C)C)CC3)cc2)c1C [I-349],> 10000 nM,
< 100 nM,> 75%,< 10 nM,C#Cc1ccc(CNC(=O)[C@@H]2C[C@@H](O)CN2C(=O)[C@@H](NC(=O)CCCCCS(=O)(=O)NC(=O)c2nc(N3CCc4cccc(C(=O)Nc5nc6cccnc6s5)c4C3)ccc2-c2cnn(CC3CCCCC3)c2C)C(C)(C)C)cc1 [I-352],> 10000 nM,
< 100 nM,> 75%,< 10 nM,C#Cc1ccc(CNC(=O)[C@@H]2C[C@@H](O)CN2C(=O)[C@@H](NC(=O)CCCCCS(=O)(=O)NC(=O)c2nc(N3CCc4cccc(C(=O)Nc5nc6ccccc6s5)c4C3)ccc2-c2cnn(CC3CCCCC3)c2C)C(C)(C)CCO)cc1 [I-354],> 10000 nM,
1000 to 3000 nM,> 75%,100 to 500 nM,C#Cc1ccc(CNC(=O)[C@@H]2C[C@@H](O)CN2C(=O)[C@H](NC(=O)CCCCCS(=O)(=O)NC(=O)c2nc(N3CCc4cccc(C(=O)Nc5nc6ccccc6s5)c4C3)ccc2-c2cnn(CC3CCCCC3)c2C)C(C)(C)CCO)cc1 [I-355],> 10000 nM,
< 100 nM,> 75%,< 10 nM,Cc1cc(N(C)c2ccc(-c3cnn(CC45CC6CC(CC(C6)C4)C5)c3C)c(C(=O)NS(=O)(=O)CCCCCC(=O)N[C@H](C(=O)N3C[C@H](O)C[C@H]3C(=O)N[C@@H](C)c3ccc(-c4scnc4C)cc3)C(C)(C)C)n2)nnc1Nc1nc2ccccc2s1 [I-356],> 10000 nM,

Structure (SMILES),"IC50 (MOLT-4 cells; MOLT-4, 72 h)",Dmax (BCL-XL),DC50 (BCL-XL),IC50 (Caki-2 cells),IC50 (MOLT-4 cells; 72 h)
Cc1ncsc1-c1ccc([C@H](C)NC(=O)[C@@H]2C[C@@H](O)CN2C(=O)[C@@H](NC(=O)CN2CCC(CS(=O)(=O)NC(=O)c3nc(N4CCc5cccc(C(=O)Nc6nc7ccccc7s6)c5C4)ccc3-c3cnn(CC4CCCCC4)c3C)CC2)C(C)(C)C)cc1 [I-335],,> 75%,< 10 nM,1000 to 10000 nM,< 100 nM
Cc1ncsc1-c1ccc([C@H](C)NC(=O)[C@@H]2C[C@@H](OC(=O)CCP(=O)(O)O)CN2C(=O)[C@@H](NC(=O)C2CCN(c3ccc(S(=O)(=O)NC(=O)c4nc(N5CCc6cccc(C(=O)Nc7nc8ccccc8s7)c6C5)ccc4-c4cnn(CC5CCCCC5)c4C)cc3)CC2)C(C)(C)C)cc1 [I-350],,> 75%,10 to 100 nM,1000 to 10000 nM,100 to 1000 nM
